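Grown in 96-well plates, cells were treated for 48 hours with each compound at five concentrations. Insufficient inhibition: endpoint recorded as highest concentration tested. Here, GI50 denotes the concentration required for 50% inhibition of growth. TGI marks complete inhibition of growth.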
Columns and labels:
Experiment in all cases: inhibition of tumour cell growth, NCI panel, 48 h
MALME-3M melanoma = test system: MALME-3M melanoma
PC-3 prostate = test system: PC-3 prostate
SW-620 colon = test system: SW-620 colon
SK-MEL-28 melanoma = test system: SK-MEL-28 melanoma
KM12 colon = test system: KM12 colon
SF-295 CNS = test system: SF-295 CNS
SN12C renal = test system: SN12C renal
UACC-257 melanoma = test system: UACC-257 melanoma
HCT-15 colon = test system: HCT-15 colon
HCT-116 colon = test system: HCT-116 colon

C[n+]1ccc(-c2c3nc(c(-c4ccc5c(ccc[n+]5C)c4)c4ccc([nH]4)c(-c4cc[n+](C)cc4)c4nc(c(-c5ccc6c(ccc[n+]6C)c5)c5ccc2[nH]5)C=C4)C=C3)cc1
GI50 (MALME-3M melanoma): > 50 µM | TGI (MALME-3M melanoma): > 50 µM | GI50 (PC-3 prostate): 49.5 µM | TGI (PC-3 prostate): > 50 µM | GI50 (SW-620 colon): > 50 µM | TGI (SW-620 colon): > 50 µM | GI50 (SK-MEL-28 melanoma): 28.5 µM | TGI (SK-MEL-28 melanoma): > 50 µM | GI50 (KM12 colon): 23.1 µM | TGI (KM12 colon): > 50 µM | GI50 (SF-295 CNS): 40.5 µM | TGI (SF-295 CNS): > 50 µM | GI50 (SN12C renal): > 50 µM | TGI (SN12C renal): > 50 µM | GI50 (UACC-257 melanoma): 12.9 µM | TGI (UACC-257 melanoma): 48.5 µM | GI50 (HCT-15 colon): > 50 µM | TGI (HCT-15 colon): > 50 µM | GI50 (HCT-116 colon): > 50 µM | TGI (HCT-116 colon): > 50 µM

O=C1OC2C(O)C(=O)OC2C1O (stereo not given)
TGI (MALME-3M melanoma): > 100 µM | TGI (PC-3 prostate): > 100 µM | TGI (SW-620 colon): > 100 µM | TGI (SK-MEL-28 melanoma): > 100 µM | TGI (KM12 colon): > 100 µM | TGI (SF-295 CNS): > 100 µM | TGI (SN12C renal): > 100 µM | TGI (UACC-257 melanoma): > 100 µM | TGI (HCT-15 colon): > 100 µM | TGI (HCT-116 colon): > 100 µM

COc1cc2c3c(n(CCCCl)c(=O)c2cc1OC)-c1ccc(C#N)cc1C3=O
GI50 (MALME-3M melanoma): 2.49 µM | TGI (MALME-3M melanoma): 74.4 µM | GI50 (PC-3 prostate): 32.4 µM | TGI (PC-3 prostate): > 100 µM | GI50 (SW-620 colon): 0.996 µM | TGI (SW-620 colon): > 100 µM | GI50 (SK-MEL-28 melanoma): > 100 µM | TGI (SK-MEL-28 melanoma): > 100 µM | GI50 (KM12 colon): > 100 µM | TGI (KM12 colon): > 100 µM | GI50 (SF-295 CNS): 5 µM | TGI (SF-295 CNS): 18.8 µM | GI50 (SN12C renal): 22.7 µM | TGI (SN12C renal): > 100 µM | GI50 (UACC-257 melanoma): 54.9 µM | TGI (UACC-257 melanoma): > 100 µM | GI50 (HCT-15 colon): 3.31 µM | TGI (HCT-15 colon): 20.5 µM | GI50 (HCT-116 colon): 15.2 µM | TGI (HCT-116 colon): > 100 µM

CC(=O)c1ccc(NCN2C(=O)c3ccccc3C2=O)cc1
TGI (MALME-3M melanoma): > 100 µM | TGI (PC-3 prostate): > 100 µM | TGI (SW-620 colon): > 100 µM | TGI (SK-MEL-28 melanoma): > 100 µM | TGI (KM12 colon): > 100 µM | TGI (SF-295 CNS): > 100 µM | TGI (SN12C renal): > 100 µM | TGI (UACC-257 melanoma): > 100 µM | TGI (HCT-15 colon): > 100 µM | TGI (HCT-116 colon): > 100 µM

CCCN1CCN(c2ccc3nc(-c4ccc5nc(-c6ccc(OCC)c(OCC)c6)[nH]c5c4)[nH]c3c2)CC1
GI50 (MALME-3M melanoma): 0.0647 µM | TGI (MALME-3M melanoma): 1.19 µM | GI50 (PC-3 prostate): 0.381 µM | TGI (PC-3 prostate): 1.92 µM | GI50 (SW-620 colon): 0.207 µM | TGI (SW-620 colon): 0.808 µM | GI50 (SK-MEL-28 melanoma): 0.755 µM | TGI (SK-MEL-28 melanoma): 2.19 µM | GI50 (KM12 colon): 0.684 µM | TGI (KM12 colon): 2.08 µM | GI50 (SF-295 CNS): 0.391 µM | TGI (SF-295 CNS): 2.03 µM | GI50 (SN12C renal): 0.526 µM | TGI (SN12C renal): 2.14 µM | GI50 (UACC-257 melanoma): 0.64 µM | TGI (UACC-257 melanoma): 2.47 µM | GI50 (HCT-15 colon): 1.87 µM | TGI (HCT-15 colon): 10.3 µM | GI50 (HCT-116 colon): 0.218 µM | TGI (HCT-116 colon): 1.19 µM
